Measurements published in PubChem BioAssay (NCI).
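Values below derive from 48-hour exposures of cells grown in 96-well plates, with endpoints linearly interpolated between the two concentrations bracketing the appropriate inhibition level. Abbreviation: GI50, concentration required for 50% inhibition of growth. TGI marks complete inhibition of growth.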

Experiments:
Test in all cases: inhibition of tumour cell growth, NCI panel, 48 h; in the data active = GI50 below about 0.43 µM; inactive = the rest
OVCAR-5 ovarian = system: OVCAR-5 ovarian
HS 578T breast = system: HS 578T breast
CAKI-1 renal = system: CAKI-1 renal
M14 melanoma = system: M14 melanoma
SNB-19 CNS = system: SNB-19 CNS
UACC-257 melanoma = system: UACC-257 melanoma
SK-MEL-2 melanoma = system: SK-MEL-2 melanoma
NCI-H226 lung = system: NCI-H226 lung
EKVX NSCLC = system: EKVX NSCLC
MALME-3M melanoma = system: MALME-3M melanoma
NCI/ADR-RES ovarian = system: NCI/ADR-RES ovarian
RPMI-8226 leukemia = system: RPMI-8226 leukemia
A498 renal = system: A498 renal
SF-295 CNS = system: SF-295 CNS
HCC-2998 colon = system: HCC-2998 colon
MDA-MB-231 breast = system: MDA-MB-231 breast
NCI-H460 lung = system: NCI-H460 lung
SK-MEL-28 melanoma = system: SK-MEL-28 melanoma
SNB-75 CNS = system: SNB-75 CNS
IGROV1 ovarian = system: IGROV1 ovarian
MDA-N = system: MDA-N
K-562 leukemia = system: K-562 leukemia
SK-OV-3 ovarian = system: SK-OV-3 ovarian
UACC-62 melanoma = system: UACC-62 melanoma
HL-60(TB) leukemia = system: HL-60(TB) leukemia
RXF 393 renal = system: RXF 393 renal
SR leukemia = system: SR leukemia
HOP-92 NSCLC = system: HOP-92 NSCLC
MDA-MB-435 = system: MDA-MB-435
786-0 renal = system: 786-0 renal
MOLT-4 leukemia = system: MOLT-4 leukemia
UO-31 renal = system: UO-31 renal
HT29 colon = system: HT29 colon
COLO 205 colon = system: COLO 205 colon
OVCAR-3 ovarian = system: OVCAR-3 ovarian
LOX IMVI melanoma = system: LOX IMVI melanoma
HOP-62 NSCLC = system: HOP-62 NSCLC
TK-10 renal = system: TK-10 renal
HCT-116 colon = system: HCT-116 colon
SF-268 CNS = system: SF-268 CNS
U251 CNS = system: U251 CNS
DU-145 prostate = system: DU-145 prostate
OVCAR-4 ovarian = system: OVCAR-4 ovarian
PC-3 prostate = system: PC-3 prostate
A549 NSCLC = system: A549 NSCLC
T-47D breast = system: T-47D breast
OVCAR-8 ovarian = system: OVCAR-8 ovarian
SN12C renal = system: SN12C renal
SF-539 CNS = system: SF-539 CNS
NCI-H522 lung = system: NCI-H522 lung
BT-549 breast = system: BT-549 breast
CCRF-CEM leukemia = system: CCRF-CEM leukemia
ACHN renal = system: ACHN renal
KM12 colon = system: KM12 colon
HCT-15 colon = system: HCT-15 colon
SW-620 colon = system: SW-620 colon
SK-MEL-5 melanoma = system: SK-MEL-5 melanoma
NCI-H23 lung = system: NCI-H23 lung

c1ccc2c(c1)cc1ccc3cccc4ccc2c1c34
> 100 µM: TGI (OVCAR-5 ovarian) | TGI (HS 578T breast) | TGI (CAKI-1 renal) | TGI (M14 melanoma) | TGI (SNB-19 CNS) | TGI (UACC-257 melanoma) | TGI (SK-MEL-2 melanoma) | TGI (NCI-H226 lung) | TGI (EKVX NSCLC) | TGI (MALME-3M melanoma) | TGI (NCI/ADR-RES ovarian) | TGI (RPMI-8226 leukemia) | TGI (A498 renal) | TGI (SF-295 CNS) | TGI (HCC-2998 colon) | TGI (MDA-MB-231 breast) | TGI (NCI-H460 lung) | TGI (SK-MEL-28 melanoma) | TGI (SNB-75 CNS) | TGI (IGROV1 ovarian) | TGI (MDA-N) | TGI (K-562 leukemia) | TGI (SK-OV-3 ovarian) | TGI (UACC-62 melanoma) | TGI (HL-60(TB) leukemia) | TGI (RXF 393 renal) | TGI (SR leukemia) | TGI (HOP-92 NSCLC) | TGI (MDA-MB-435) | TGI (786-0 renal) | TGI (MOLT-4 leukemia) | TGI (UO-31 renal) | TGI (HT29 colon) | TGI (COLO 205 colon) | TGI (OVCAR-3 ovarian) | TGI (LOX IMVI melanoma) | TGI (HOP-62 NSCLC) | TGI (TK-10 renal) | TGI (HCT-116 colon) | TGI (SF-268 CNS) | TGI (U251 CNS) | TGI (DU-145 prostate) | TGI (OVCAR-4 ovarian) | TGI (PC-3 prostate) | TGI (A549 NSCLC) | TGI (T-47D breast) | TGI (OVCAR-8 ovarian) | TGI (SN12C renal) | TGI (SF-539 CNS) | TGI (NCI-H522 lung) | TGI (BT-549 breast) | TGI (CCRF-CEM leukemia) | TGI (ACHN renal) | TGI (KM12 colon) | TGI (HCT-15 colon) | TGI (SW-620 colon) | TGI (SK-MEL-5 melanoma) | TGI (NCI-H23 lung)
inactive: GI50 (OVCAR-5 ovarian) > 100 µM | GI50 (MALME-3M melanoma) > 100 µM | GI50 (A498 renal) > 100 µM | GI50 (OVCAR-4 ovarian) > 100 µM
